PubChem BioAssay AID1996
Values after ≈ are worked out from the molar mass of the structure shown.

Settings: buffer; pH 7.4; 200.0 µM

| solubility kinetic [µg/mL] | Structure (SMILES) |
| --- | --- |
| > 51.1 | S=C(NC1CCCCC1)N1CCn2cccc2C1c1cccnc1 (stereo not given) |
| 43.9 (≈ 119 µM) | CCCCN(CC)CCNC(=O)c1cc2c(=O)[nH]c3ccccc3c2n1C |
| > 38.7 | O=C(CSc1nncs1)Nc1nccs1 |
| > 35.1 | COC(=O)c1ccc(N2CCCCC2)c(N)c1 |
| 7.6 (≈ 21.2 µM) | O=C(NCc1ccccc1)c1cccc(S(=O)(=O)N2CCCCC2)c1 |
| 37.3 (≈ 148 µM) | NC1=C(Br)C(=O)c2ccccc2C1=O |
| 35.9 (≈ 122 µM) | O=C(CCCc1c[nH]c2ccccc12)Nc1ncccc1O |
| > 32.4 | O=C(Nc1ccc(F)cc1)c1cccnc1 |
| < 0.4 | CSc1nc2sc3c(c2c(=O)n1CC(C)C)CC(C)(C)OC3 |
| > 51.1 | COc1cccc2c1O/C(=N\O)C(C(=O)Nc1cccc(C)c1C)C2 (stereo not given) |
| > 59.8 | O=S(=O)(Nc1cccc(S(=O)(=O)N2CCCCC2)c1)c1ccccc1F |
| > 30.9 | CC(C)(/C=N/O)/[N+]([O-])=C/c1ccccc1 |
| > 52.4 | COc1cccc(/C=C(\C#N)c2nc3ccccc3[nH]2)c1OCC(=O)O |
| > 38.3 | C/C(=N\Nc1ccccc1C(=O)O)c1ccncc1 |
| 42.6 (≈ 144 µM) | COc1cc2c(cc1OC)C(CCc1ccccc1)=NCC2 |
| > 50.8 | O=C(O)/C=C/C(=O)NCC1CCC(CNC(=O)/C=C/C(=O)O)CC1 (stereo not given) |
| 43.4 (≈ 149 µM) | CC(C)CCNC(=O)COc1cccc2c1OC(C)(C)C2 |
| 7 (≈ 47.6 µM) | OCc1c[nH]c2ccccc12 |
| 8.2 (≈ 25.9 µM) | O=C(OCC(=O)N1CCc2ccccc21)c1ccc([N+](=O)[O-])o1 |
| 39.2 (≈ 121 µM) | CCC1CCCCN1CC(C)(C)NS(=O)(=O)c1ccccc1 (stereo not given) |
| < 0.7 | CC(=O)c1c(Cl)nc2cccc3c2c1-c1ccccc1C3=O |
| > 42.4 | CCCc1nnc(NC(=O)CCC(=O)NC2CC2)s1 |
| 7.2 (≈ 22.3 µM) | CCOC(=O)c1cnc2c(OC)cccc2c1Oc1ccccc1 |
| > 48 | O=C(OCC(=O)N1CCOCC1)c1cc(F)c(F)cc1Cl |

| solubility kinetic [µg/mL] | Structure (SMILES) |
| --- | --- |
| 0.8 (≈ 2.47 µM) | N#C/C(=C\c1c[nH]c2ccc(Br)cc12)c1ccccn1 |
| > 49.1 | CN(C(=O)c1ccncc1)C1CCCN(Cc2ccccc2F)C1 (stereo not given) |
| > 57.4 | CCNC(=S)NNC(=O)c1ccc(S(=O)(=O)NCc2ccco2)cc1 |
| 4 (≈ 15.9 µM) | Cc1ccc(NC(=O)Nc2ccon2)cc1Cl |
| > 47 | Cc1ccc(N2CC(C(=O)Nc3cc(C)on3)CC2=O)c(C)c1 (stereo not given) |
| > 44 | COc1cc(CNC(=O)C2CCCC2)cc(OC)c1OC |
| > 42.8 | COc1ccc(CC(=O)NCc2ccccc2)cc1OC |
| > 41.5 | Cc1ccc2[nH]c3c(c2c1)CCCC3NC(=O)CCl (stereo not given) |
| > 47.5 | CCn1cc(C(C)NC(=O)Nc2ccc3c(c2)OCO3)c(C)n1 (stereo not given) |
| > 52.7 | COc1ccc(OCC(O)CNS(=O)(=O)c2ccc(C)cc2)cc1 (stereo not given) |
| 3.1 (≈ 9.96 µM) | CCn1c(=O)c2c(nc3n2CCN3c2ccccc2)n(C)c1=O |
| 3.5 (≈ 11.3 µM) | COc1cc(NC(=O)C2CC3CCC2C3)c(OC)cc1Cl (stereo not given) |
| < 0.2 | CCOC(=O)c1cc(C#N)c(Nc2ccc(C)cc2)nc1C(F)(F)F |
| < 0.2 | CS(=O)(=O)N1CCN(c2nc3ccc(Cl)cc3s2)CC1 |
| 33.9 (≈ 115 µM) | O=C1CN(C(=O)CNCc2ccccc2)c2ccccc2N1 |
| 28.3 (≈ 109 µM) | Cc1ccc2oc(=O)c(/C=C(\O)C(C)(C)C)nc2c1 |
| 18.5 (≈ 50.3 µM) | CCCOP(=O)(c1ccc(N(C)C)cc1)C(O)c1ccc(Cl)cc1 (stereo not given) |
| 2.1 (≈ 5.95 µM) | O=C(NCCOc1ccccc1F)Nc1ccc(Br)cc1 |
| 1.3 (≈ 3.83 µM) | CSc1ncc(C(=O)Nc2ccccc2F)c(-c2ccccc2)n1 |
| 36.2 (≈ 140 µM) | COc1cc2c3c(c1)C(C)CC(C)(C)N3C(=O)C2=O (stereo not given) |
| 2.2 (≈ 7.37 µM) | CCC(CC)C(=O)c1c[nH]c(C(=O)NCc2ccccc2)c1 |
| 28.4 (≈ 97.1 µM) | O=C(NCC(O)c1ccc([N+](=O)[O-])cc1)C1CCCCC1 (stereo not given) |
| 4.4 (≈ 12 µM) | O=C(NC(=S)Nc1ccccc1OC(F)F)c1ccc2c(c1)OCO2 |
| 43.4 (≈ 128 µM) | Cc1ccccc1N1CC(C(=O)Nc2ccc3c(c2)OCO3)CC1=O (stereo not given) |

| solubility kinetic [µg/mL] | Structure (SMILES) |
| --- | --- |
| > 45.9 | CN(C)S(=O)(=O)c1cccc(NC(=O)NCCCl)c1 |
| 10.8 (≈ 44 µM) | CCCSc1nsc(NC(=O)CCC)n1 |
| 17.7 (≈ 57.6 µM) | CN(C(=O)COC(=O)/C=C/c1cccs1)C1CCCCC1 |
| > 41.6 | Cc1nc(C)c(C(=O)O)c(-c2ccsc2)c1C(=O)O |
| > 40.4 | CC1CCCCN1C(=O)c1cc2ccccc2cc1O (stereo not given) |
| > 47.3 | CC(C)OP(=O)(OC(C)C)C(O)c1ccc(N(C)C)cc1 (stereo not given) |
| 1.2 (≈ 4.21 µM) | Oc1ccc(Cl)cc1CNc1cnc2ccccc2c1 |
| > 47.9 | COc1ccc(C)cc1NC(=O)CCCN1C(=O)CN(C)C1=O |
| 14.7 (≈ 37.1 µM) | CC1Cc2ccccc2N1S(=O)(=O)c1cccc(C(=O)NCc2ccco2)c1 (stereo not given) |
| 1.2 (≈ 3.9 µM) | O=C(NC(=S)Nc1cccc2cnccc12)c1ccccc1 |
| > 38.9 | CCOC(=O)c1ccc(NC(=O)c2ccco2)cc1 |
| 38 (≈ 144 µM) | CC(=O)c1sc(=S)n(Cc2ccccc2)c1C |
| 5.1 (≈ 11.3 µM) | CCCN(CC(=O)Nc1cc(Cl)ccc1Cl)C(=O)/C=C/c1cc(OC)ccc1OC |
| > 38.3 | CCc1ccccc1NC(=O)NCc1cccnc1 |
| 8.7 (≈ 23.9 µM) | Cn1cccc1C(=O)NC(=O)COC(=O)c1ccc(S(C)(=O)=O)cc1 |
| 9.6 (≈ 26.9 µM) | Cc1ccc(OCC(=O)OCC(=O)Nc2ccc3c(c2)OCO3)cc1C |
| 40.5 (≈ 127 µM) | CCc1ccc(NS(=O)(=O)c2cccc3nsnc23)cc1 |
| > 47 | CCc1ccccc1N1CC(C(=O)Nc2cc(C)on2)CC1=O (stereo not given) |
| < 0.6 | CC1(C)C2CCC1(C)C([NH2+]c1ccccc1)C2.[Cl-] (stereo not given) |
| > 38.9 | CCC(NC(=O)Cc1cccs1)c1ccccc1 (stereo not given) |
| 0.6 (≈ 1.71 µM) | O=[N+]([O-])c1ccc(-c2nc(NCC3CCCO3)c3ccccc3n2)cc1 (stereo not given) |
| 45.9 (≈ 148 µM) | Cc1ccccc1C(=O)Nc1ccc(CN2CCOCC2)cc1 |
| > 46.1 | COc1ccc(CCNC(=O)COC(=O)C2CC2)cc1OC |
| 13.2 (≈ 42.3 µM) | O=C(NC(=S)Nc1cccc2cc(O)ccc12)c1ccco1 |

| solubility kinetic [µg/mL] | Structure (SMILES) |
| --- | --- |
| 30 (≈ 123 µM) | S=C(NCc1ccccc1)Nc1ccncc1 |
| 11 (≈ 31.8 µM) | CC(=O)c1c(C)nc(-c2ccccc2)nc1NC(=O)Cc1ccccc1 |
| 17.6 (≈ 73.1 µM) | Clc1nc(-c2ccccc2)c2ccccc2n1 |
| 13.8 (≈ 32.3 µM) | Cn1cccc1C(=O)NC(=O)COC(=O)CCNS(=O)(=O)c1ccc(Cl)cc1 |
| > 66.1 | COC(=O)c1ccc(NS(=O)(=O)c2ccc(S(=O)(=O)N3CCOCC3)cc2)cc1 |
| > 45.4 | CN(C)CCOC(=O)NC12CC3CC(CC(C3)C1)C2.Cl |
| > 43.4 | O=C(COC(=O)COc1ccccc1)NCc1ccco1 |
| 3.3 (≈ 11 µM) | Cc1ccc2c(CN3CC(C)CC(C)C3)cc(=O)oc2c1C (stereo not given) |
| 34.1 (≈ 95.1 µM) | CN(CCO)C(=O)c1c(NC(=O)c2ccccc2)sc2c1CCCC2 |
| > 45.2 | O=C1NC(N2CCOCC2)=N/C1=C/c1ccc2c(c1)OCO2 |
| 44.8 (≈ 148 µM) | CN(C)/C=C(\C=O)c1onc(-c2ccccc2Cl)c1C#N |
| 18.6 (≈ 55.2 µM) | CSc1ncc(Cl)c(C(=O)Nc2ccc(NC(C)=O)cc2)n1 |
| > 41.6 | N#Cc1c(C(F)(F)F)cc(=O)n2c1[nH]c1ccccc12 |
| > 41 | O=C1CCCc2c1nc(-c1ccc([N+](=O)[O-])cc1)n2O |
| > 34.1 | Nc1ccn(C2CC(O)C(CO)O2)c(=O)n1 (stereo not given) |
| 5.1 (≈ 15.2 µM) | NC(=O)c1ccccc1OCCOc1ccc(Br)cc1 |
| > 52.1 | CCCn1c(SCC(=O)N2CC(=O)Nc3ccccc32)n[nH]c1=O |
| > 51.4 | COc1cc(C2C(C#N)=C(SC)NC3=C2C(=O)CCC3)ccc1O (stereo not given) |
| > 52.3 | COc1cccc(NC(=O)COC(=O)CNC(=O)C2CCCCC2)c1 |
| < 0.7 | CCOC(=O)c1c(-c2ccccc2)oc2ccc(OCC(N)=O)cc12 |
| 0.8 | Cc1ccc2sc(N(CCN(C)C)C(=O)c3ccc4ccccc4c3)nc2c1C.Cl |
| 5 (≈ 12.8 µM) | CCOC(=O)C(=CNc1ccc(Oc2cncc(Cl)c2)nc1)C(=O)OCC |
| > 52.7 | O=C(NCC(c1ccco1)N1CCCC1)c1cc(=O)[nH]c2ccccc12 (stereo not given) |
| > 43 | O=Cc1cn(CC(O)CN2CCCCC2)c2ccccc12 (stereo not given) |

| solubility kinetic [µg/mL] | Structure (SMILES) |
| --- | --- |
| 10.7 (≈ 33 µM) | COC(=O)CSc1nc(Cc2ccccc2)nc2ccccc12 |
| 42.6 (≈ 134 µM) | CC(=O)Nc1ccc(C)c(NC(=S)Nc2ccc(F)cc2)c1 |
| 34.2 (≈ 142 µM) | CN1C(=O)CSC1=Nc1cccc(Cl)c1 |
| 2.1 (≈ 6.62 µM) | COc1cccc(/C=c2\s/c(=C\C(=O)C(C)(C)C)[nH]c2=O)c1 |
| 1.6 (≈ 4.46 µM) | O=C(Nc1sc2c(c1C(=O)NCCCO)CCCC2)c1ccccc1 |
| 9.9 (≈ 29.1 µM) | Cc1ccc2nc(SCC(=O)Nc3ccc(C(N)=O)cc3)[nH]c2c1 |
| > 48.3 | Cc1cc(C)nc(SCCC(=O)Nc2ccccc2Cl)n1 |
| > 49.4 | Cc1ccc(CC(C(=O)O)C(C)C(=O)Nc2ccc(F)cc2)cc1 (stereo not given) |
| > 47.9 | Cc1cc(NC(=O)CS(=O)(=O)c2c[nH]c3ccccc23)no1 |
| 18.3 (≈ 58.4 µM) | COC(=O)c1ccc(N2C(=O)C3CC(C)=C(C)CC3C2=O)cc1 (stereo not given) |
| 30 (≈ 86.1 µM) | Cc1noc(C)c1S(=O)(=O)N1CCC(C(=O)c2ccccc2)CC1 |
| 18.3 (≈ 48.9 µM) | O=C(O)c1c(NC(=O)N(CCO)Cc2ccccc2)sc2c1CCCC2 |
| 26.7 (≈ 113 µM) | Cc1ccc(OCCCN2CCOCC2)cc1 |
| > 52.3 | Cc1cc(NC(=O)CSc2nnc(-c3ccccc3F)n2N)no1 |
| 33.9 | Cl.Fc1ccc(-c2ccc(CNCc3ccccn3)o2)cc1 |
| > 42.5 | Cn1nccc1C(=O)N1CCC(Cc2ccccc2)CC1 |
| > 47 | CCCc1nc2oc3c(=O)[nH]cnc3c2c2c1COC(C)(C)C2 |
| > 35 | CC(c1ccccc1)N1CC(C(=O)O)CC1=O (stereo not given) |
| 54.7 (≈ 147 µM) | O=C(NCCc1ccc(Cl)cc1)C1CCCN1C(=O)Nc1ccccc1 (stereo not given) |
| > 45.5 | CC(C(=O)N1CCCC1)N1CCN(c2ccccc2O)CC1 (stereo not given) |
| > 44.8 | O=C(Nc1cc2c3c(c1)CC(=O)N3CCC2)C1CCCCC1 |

| Structure (SMILES) | solubility kinetic [µg/mL] |
| --- | --- |
| COc1ccc(CNC(=O)C(NC(C)=O)C(C)C)cc1OC (stereo not given) | > 46.3 |
| COc1nc2ccccc2nc1N1CCN(C)CC1 | 38.4 (≈ 149 µM) |
| Cc1ccc(C)c(OCCCNCc2ccccc2)c1.O=C(O)C(=O)O | > 53.9 |
